Here are results for 5 compounds from publication PMC3179492, “HIV Protease Inhibitors Act as Competitive Inhibitors of the Cytoplasmic Glucose Binding Site of GLUTs with Differing Affinities for GLUT1 and GLUT4” (PLoS ONE, 2011).

Where “and” joins values, the source holds several entries; their conditions need not be identical. Equal values may be shown once. Read-outs that look alike come from different tables or passages of the source.

The target of one assay is T1, GLUT1 (Mus musculus, UniProt P17809).
T1 construct: LDM contains small intracellular vesicles of GLUT4 and GLUT1; endogenous in cells; host or cells: low-density microsome fraction of differentiated 3T3-L1 adipocytes
T1 sequence (P17809 1-492): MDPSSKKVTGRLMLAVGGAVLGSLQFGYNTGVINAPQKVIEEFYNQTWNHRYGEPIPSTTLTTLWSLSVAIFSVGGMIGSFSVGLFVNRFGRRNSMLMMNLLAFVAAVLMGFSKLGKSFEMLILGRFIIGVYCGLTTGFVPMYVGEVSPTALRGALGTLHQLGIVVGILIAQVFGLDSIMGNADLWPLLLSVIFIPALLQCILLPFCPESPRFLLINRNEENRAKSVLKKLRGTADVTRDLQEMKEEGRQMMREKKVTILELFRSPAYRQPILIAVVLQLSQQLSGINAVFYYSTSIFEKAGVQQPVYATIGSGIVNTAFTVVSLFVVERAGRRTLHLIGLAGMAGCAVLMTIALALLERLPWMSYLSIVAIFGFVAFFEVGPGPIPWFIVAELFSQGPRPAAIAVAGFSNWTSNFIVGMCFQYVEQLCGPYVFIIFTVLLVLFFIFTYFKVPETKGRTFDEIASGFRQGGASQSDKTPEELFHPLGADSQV
The experiment in a line: ATB-BMPA photolabeling of low-density microsomes (LDM) from 3T3-L1 adipocytes, GLUT1. In kind it is binding. The conditions noted are these: for IC50: LDM 200 µg, biotinylated ATB-BMPA 50 µM, mean ± S.E., n = 3, read-out: Half-maximal inhibition (IC50) of ATB-BMPA binding to GLUT1. As to the method: (§1) 3T3-L1 fibroblasts were grown to confluency and 48 h later subjected to differentiation as previously described. 3T3-L1 adipocytes were used 10 – 14 days after differentiation. Six culture dishes (15 cm) of adipocytes were serum-starved overnight, washed 3 times with ice-cold HES buffer (50 mM Hepes, pH 7.4, 255 mM sucrose, and 1 mM EDTA) containing Roche complete protease inhibitors (Roche Applied Science, Mannheim, Germany), scraped into 5 ml of the same buffer, and then homogenized with either a ball-bearing homogenizer or with a Potter-Elvehjem tissue grinder and a PTFE pestle. The low-density microsome (LDM) fraction was obtained by differential centrifugation as described previously. LDM were resuspended in phosphate buffer (25 mM phosphate, pH 7.4, 100 mM NaCl, 5% glycerol) containing complete Roche protease inhibitors.
(§2) Inhibitors were added to LDM (200 µg protein unless otherwise stated) for 10 min at room temperature. Samples (final volume 110 µl) were then incubated for 10 min at room temperature in the dark with biotinylated ATB-BMPA (50 µM final concentration) and then placed on ice prior to UV irradiation. Reactions were transferred to a 24-well low protein retention culture dish (Costar, Corning, NY) and then irradiated at room temperature 5 cm from a Green Spot UV lamp for 1 min (30 sec of light, followed by 30 sec of darkness, followed by 30 sec of light).
(§3) 20 µl of BSA (1.5 mg/ml final concentration) was added to the UV irradiated samples in a siliconized eppendorph tube. Excess biotinylated ATB-BMPA label was removed using a 0.5 ml Zeba Spin Desalting Column (Pierce). Biotinylated proteins were isolated essentially as described previously. Membranes were solubilized for 30 min at 4°C with 2% Thesit detergent buffer containing protease inhibitors. After centrifugation at 16,000 x g for 10 min, the supernatants were incubated overnight at 4°C with 50 µl of high capacity Streptavidin Agarose resin (Pierce). Precipitates were washed 3 times with 1% Thesit detergent buffer, twice with 0.1% Thesit detergent buffer, and once with phosphate buffer. Biotinylated proteins were eluted at 95 – 100°C for 20 min in 60 µl of 2X Laemmli Sample Buffer containing 40 mM dithiothreitol. Half of the eluted proteins were subjected to SDS-PAGE and transferred to nitrocellulose. Immunoblot analysis was carried out using GLUT4 and GLUT1 specific antibodies and quantified using an Odyssey Infrared Imaging System (LI-COR Biosciences, Lincoln, NE).

The test system of another assay is 3T3-L1 fibroblasts. Nature of the assay: 2-Deoxyglucose uptake in 3T3-L1 fibroblasts (express only GLUT1). It is filed as cell-based. As to conditions: 3T3-L1 fibroblasts. How it is done: 3T3-L1 fibroblasts were grown to confluency in Dulbecco's modified Eagle's medium (DMEM) supplemented with 10% calf serum. The uptake of [^3H]2-Deoxyglucose (50 µM) was measured in Krebs-Ringer phosphate buffer for 6 min at 37°C as previously described. HIV protease inhibitors were added 6 min prior to the start of the reaction. Non-specific uptake measured in the presence of 20 µM cytochalasin B (Sigma) was subtracted from the experimental values.

In a further assay the test system is primary rat adipocytes. The experiment in a line: 2-Deoxyglucose uptake in insulin-stimulated primary rat adipocytes (predominantly GLUT4). As to conditions: for Effect on 2-deoxyglucose uptake (GLUT4 transporter activity): primary rat adipocytes. It is filed as cell-based. How it is done:
Adipocytes from epididymal fat pads were prepared from male Wistar rats weighing 150 – 200 g (from Charles River Laboratories, Inc., Wilmington, MA) as previously described. Adipocytes were stimulated with 1 µM insulin for 30 min at 37°C prior to use. 2-Deoxyglucose uptakes were performed by adding 80 µl of the cell suspension to 80 µl of Krebs-Ringer bicarbonate Hepes buffer (KRB) (120 mM NaCl, 4 mM KH2PO4, 1 mM MgSO4, 1 mM CaCl2, 10 mM NaHCO3, 200 nM adenosine, 30 mM Hepes, pH 7.4) containing 3% bovine serum albumin. HIV protease inhibitors / vehicle were added 5 min prior to the initiation of the reaction. Uptakes were initiated with the addition of 20 µl of [^3H]2-deoxyglucose (final 2-deoxyglucose concentration 50 µM; 0.5 µCi/assay). After 1 min at 37 °C, reactions were quenched with cytochalasin B to a final concentration of 0.4 mM. The cells were separated by spinning the reaction through dinonylphthalate as previously described and the intracellular radioactivity was quantified by liquid scintillation counting. Non-specific uptake measured in the presence of 20 µM cytochalasin B (Sigma) was subtracted from the experimental values.

The target of assay [1] is T2, GLUT4 (Mus musculus, UniProt P14142).
T2 sequence (P14142 1-509): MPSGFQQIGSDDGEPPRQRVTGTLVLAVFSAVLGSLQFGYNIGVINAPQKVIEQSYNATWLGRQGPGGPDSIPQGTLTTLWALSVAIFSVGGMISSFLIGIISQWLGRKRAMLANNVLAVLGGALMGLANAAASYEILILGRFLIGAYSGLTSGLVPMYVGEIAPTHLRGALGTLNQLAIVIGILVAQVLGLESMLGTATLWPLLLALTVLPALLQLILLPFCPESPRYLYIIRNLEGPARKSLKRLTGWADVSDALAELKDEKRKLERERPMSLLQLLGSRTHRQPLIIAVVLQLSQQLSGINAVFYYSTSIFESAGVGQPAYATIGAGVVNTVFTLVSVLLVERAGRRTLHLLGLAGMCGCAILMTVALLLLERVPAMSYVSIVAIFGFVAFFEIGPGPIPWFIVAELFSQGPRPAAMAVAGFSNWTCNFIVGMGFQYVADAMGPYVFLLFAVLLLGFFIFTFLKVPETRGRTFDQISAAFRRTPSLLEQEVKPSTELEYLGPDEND
The experiment in a line: ATB-BMPA photolabeling of low-density microsomes (LDM) from 3T3-L1 adipocytes, GLUT4. In kind it is binding. Further details: LDM contains small intracellular vesicles of GLUT4 and GLUT1; endogenous in cells; host or cells: low-density microsome fraction of differentiated 3T3-L1 adipocytes. The conditions noted are these: for IC50: LDM 200 µg, biotinylated ATB-BMPA 50 µM, mean ± S.E., n = 3, read-out: Half-maximal inhibition (IC50) of ATB-BMPA binding to GLUT4; for Selectivity GLUT4 vs GLUT1, inhibition of ATB-BMPA labeling: LDM of 3T3-L1 adipocytes. How it is done:
as §1, §2, §3

A further assay concerns the target human erythrocytes. Further details: method as in PMID 2390055. As to conditions: read-out: Ki for inhibition of sugar uptake; cited from earlier work.
Assay [2] deals with insulin-stimulated rat adipocytes. As to conditions: read-out: Ki for inhibition of sugar uptake; cited from earlier work.
For assay [3], the target named is T2, GLUT4. The experiment in a line: Kinetic (Scatchard) analysis of indinavir effect on ATB-BMPA labeling of GLUT4 in LDM. It is filed as binding. Further details: LDM contains small intracellular vesicles of GLUT4 and GLUT1; endogenous in cells; host or cells: low-density microsome fraction of differentiated 3T3-L1 adipocytes. As to conditions: Scatchard plot. As to the method:
ATB-BMPA (50, 100, 200, 300 µM final concentration) was then added for an additional 10 min (5 min at room temperature, 5 min at 4 °C). Samples (110 µl final volume) were UV irradiated as described above. After removal of excess label with a desalting spin column, GLUT4 protein was immunoprecipitated from Thesit-solubilized LDM using a GLUT4 C-terminal directed antibody. ATB-BMPA-bound GLUT4 was analyzed by immunoblot analysis using an IR Dye 800 CW fluorescent streptavidin (LI-COR) and quantified with an Odyssey Infrared Imaging System. Identical samples that were not UV irradiated were used to correct for non-specific binding. The free ATB-BMPA concentration was assumed to be equal to the total ATB-BMPA concentration since the label concentration far exceeded the GLUT4 concentration. The data was expressed as Scatchard plots, bound/free versus bound. The Bmax and Kd values were determined from the horizontal intercept and the negative […], respectively.

For a further assay, the system named is myotubes. More on the design: method as in PMID 1401073. As to conditions: read-out: IC50 for inhibition of 2-deoxy-glucose uptake into myotubes; cited from earlier work.
[4] abbreviates: 10 µM PI (therapeutic concentration).

Take `COC(=O)N[C@H](C(=O)N[C@@H](Cc1ccccc1)[C@@H](O)CN(Cc1ccc(-c2ccccn2)cc1)NC(=O)[C@@H](NC(=O)OC)C(C)(C)C)C(C)(C)C` [Atazanavir, atazanavir]: the “Effect on ATB-BMPA labeling of GLUT1” value was “no effect” at GLUT1 (setting [4]) and “affected” on GLUT1 (50 µM PI). In addition, the IC50 at GLUT1 came to 59 ± 4.8 µM; on GLUT4 [1] it was 66 ± 3.3 µM. For the same compound, the “Effect on 2-deoxyglucose uptake (GLUT1 transporter activity)” value (“Effect … (GLUT1 transporter activity)” below) is reported as “no effect” with 3T3-L1 fibroblasts (10 µM PI) and “affected” in the assay on 3T3-L1 fibroblasts (50 µM PI). The “Effect on 2-deoxyglucose uptake (GLUT4 transporter activity)” value (shortened to “Effect … (GLUT4 transporter activity)”) with primary rat adipocytes (10 µM PI) is “no effect”; with primary rat adipocytes (50 µM PI), “affected”. In the assay on primary rat adipocytes (primary rat adipocytes vs 3T3-L1 fibroblasts), the “Selectivity GLUT4 vs GLUT1, inhibition of glucose uptake” value is on record as “non-specific GLUT inhibitor”. Besides, the “Effect on ATB-BMPA labeling of GLUT4” value at GLUT4 [1] (setting [4]) was “no effect”; on GLUT4 [1] (50 µM PI), “affected”. In addition, the “Selectivity GLUT4 vs GLUT1, inhibition of ATB-BMPA labeling” value is “non-specific GLUT inhibitor” at GLUT4 [1] and “non-selective” on GLUT4 [1] (listed as atazanavir).
In the case of `O=C(CCCCC1SCC2NC(=O)NC21)NCCCCCC(=O)NCCOCCOCCOc1cc(C2(C(F)(F)F)N=N2)ccc1C(=O)NC(CO[C@H]1[C@H](O)[C@H](O)C(O)O[C@@H]1CO)CO[C@H]1[C@H](O)[C@H](O)C(O)O[C@@H]1CO` (stereo partly shown) [ATB-BMPA], the inhibitory constant (Ki) (on human erythrocytes; in assay [2]) was ~350 µM throughout. Further, the Kd on GLUT4 [3] (0 µM indinavir, read-out: Kd of ATB-BMPA binding to GLUT4) turned out to be 75 µM; on GLUT4 [3] (10 µM indinavir, read-out: Kd (apparent) of ATB-BMPA binding to GLUT4) it was 152 µM; at GLUT4 [3] (20 µM indinavir, read-out: Kd (apparent) of ATB-BMPA binding to GLUT4), 218 µM; at GLUT4 [3] (50 µM indinavir, read-out: Kd (apparent) of ATB-BMPA binding to GLUT4) it was 510 µM.
As for `CC(C)c1nc(CN(C)C(=O)N[C@H](C(=O)N[C@@H](Cc2ccccc2)C[C@H](O)[C@H](Cc2ccccc2)NC(=O)OCc2cncs2)C(C)C)cs1` [Ritonavir, ritonavir], the “Effect on ATB-BMPA labeling of GLUT1” value on GLUT1 (50 µM PI) is “affected”. In addition, in the assay on 3T3-L1 fibroblasts (50 µM PI), the “Effect … (GLUT1 transporter activity)” value is “affected”. In addition, the “Effect … (GLUT4 transporter activity)” value with primary rat adipocytes (50 µM PI) is “affected”. Further, the “Effect on ATB-BMPA labeling of GLUT4” value at GLUT4 [1] (50 µM PI) is given as “affected”.
Consider `C=C1[C@@H](C)[C@H]2[C@H](Cc3ccccc3)NC(=O)[C@]23OC(=O)/C=C/[C@H](O)CCC[C@@H](C)C/C=C/[C@H]3[C@@H]1O` [CB, cytochalasin B], for which the 50% inhibitory concentration (IC50) at GLUT1 is 0.35 µM and 0.36 µM; in the assay on myotubes, 0.4 µM; at GLUT4 [1], 0.44 ± 0.07 µM.
For `CCC[C@@]1(CCc2ccccc2)CC(O)=C([C@H](CC)c2cccc(NS(=O)(=O)c3ccc(C(F)(F)F)cn3)c2)C(=O)O1` [Tipranavir], the “Effect on ATB-BMPA labeling of GLUT1” value at GLUT1 (setting [4]) and at GLUT1 (50 µM PI) was “no effect” in each case. The “Effect … (GLUT1 transporter activity)” value in the assay on 3T3-L1 fibroblasts (10 µM PI) and in the assay with 3T3-L1 fibroblasts (50 µM PI) was “no effect” each time. In addition, the “Effect … (GLUT4 transporter activity)” value with primary rat adipocytes (10 µM PI) and in the assay on primary rat adipocytes (50 µM PI) was “no effect” each time. Also, the “Effect on ATB-BMPA labeling of GLUT4” value at GLUT4 [1] (setting [4]) and at GLUT4 [1] (50 µM PI) was “no effect” in each case.
